Measured values: patent US20100144779A1, “Marine Alkalod Makaluvamines and Derivatives Thereof” (THE UAB RESEARCH FOUNDATION, priority 2007, published 2010)
Read-outs that look alike come from different tables or passages of the source.

Tests used:
Format in all cases: cell-based, human
p21 = experiment: Protein expression, Western blot in MCF-7 cells; settings: 1 μM, 6 h (FIG. 4A)
Method: (§1) In FIG. 4A, MCF-7 cells were exposed to 1 μM concentration of the indicated compounds for 6 hours. Western blots were probed with antibodies specific for the proteins indicated. Numbers below each lane show densitometry readings for each lane as compared to control. […] Western blots were probed with antibodies specific for the proteins indicated.
(§2) To determine the disclosed compounds effect on protein expression in human breast cancer cells, cultured MCF-7 cells were exposed to various concentrations of the test compounds for 6 h (FIG. 4A) or 24 h (FIG. 4B). Cell lysates were fractionated with identical amounts of protein by SDS-PAGE and transferred to Bio-Rad trans-Blot nitrocellulose membranes (Bio-Rad Laboratories, Hercules, Calif.). The nitrocellulose membrane was incubated in blocking buffer (Tris-buffered saline containing 0.1% Tween 20 and 5% nonfat milk) for 1 h at room temperature, then with the appropriate primary antibody overnight at 4° C. or 2 h at room temperature with gentle shaking. Finally, the membrane was washed three times with the washing buffer (Tris-buffered saline containing 0.1% Tween 20) for 15 min, incubated with goat anti mouse/rabbit IgG-horseradish peroxidase-conjugated antibody (Bio-Rad) for 1 h at room temperature, and washed again (in triplicate). The protein of interest was detected by enhanced chemiluminescence reagents from PerkinElmer LAS, Inc (Boston, Mass.).

MCF-7 = experiment: XTT cytotoxicity assay
Method: (§3) In initial experiments, compounds 4a-g and 7c-g were evaluated for their cytotoxicity against human breast cancer cell lines MCF-7 and MDA-MB-468 and human colon cancer cell line HCT-116. The makaluvamine compounds provided in Table 2 were also evaluated for their cytotoxicity against human breast cancer cell lines MCF-7. Compound nos. 8 and 27-33 were not evaluated in this experiment. Cells were obtained from ATCC (Manassas, Va.). For each derivative the IC50 value was determined using data generated from 2-4 independent tetrazolium-based (XTT) cytotoxicity assays (R & D Systems Inc., Minneapolis, Minn.) according to the manufacturer's instructions. […] MCF-7, MDA-MD-468 and HCT-116 cells were grown at 37 degrees C. in a humidified atmosphere with complete growth media supplemented with fetal bovine serum. Growth media was changed 2-3 times per week as required.

MCF7 cells = experiment: MTT growth inhibition assay; settings: for IC50: Homo sapiens, read-out: Growth inhibitory activity (IC50) in MCF7 cells
Method: The cell lines were obtained from the American Type Culture Collection (Rockville, Md.) and were grown as follows: MCF-7 (p53 wt) breast cancer cells were grown in DMEM media containing 1 mM non-essential amino acids, Earle's BSS, 1 mM Na pyruvate, and 10 mg/L bovine insulin.
All media contained 10% FBS and 1% penicillin/streptomycin unless otherwise specified. The effects of disclosed compounds on human cancer cell growth, expressed as the percentage of cell survival, were determined by the MTT [3-(4,5-Dimethyl-2-thiazolyl)-2,5-diphenyl-2H-tetrazolium bromide] assay. Cells were grown in 96-well plates and exposed to the test compounds (0, 0.01, 0.1, 1, 10, 100 μM) for 72 hr followed by addition of 10 μL MTT solution (5 mg/mL; Sigma; St. Louis, Mo.) to each well. The plates were incubated for 2-4 hr at 37° C. The supernatant was then removed and formazan crystals were dissolved with 100 μL of DMSO. The absorbance at 570 nm was recorded with an OPTImax microplate reader (Molecular Devices; Sunnyvale, Calif.). The cell survival percentages were calculated by dividing the mean OD of compound containing wells by that of DMSO-control wells. Three separate experiments were accomplished to determine the IC50.

p53 = experiment: Protein expression, Western blot in MCF-7 cells; settings: 1 μM, 6 h (FIG. 4A)
Method: as §1, §2

MDA-MB-468 = experiment: XTT cytotoxicity assay; settings: read-out: Inhibition of Cancer Cell Proliferation (IC50) MDA-MB-468
Method: as §3

HCT-116 = experiment: XTT cytotoxicity assay; settings: read-out: Inhibition of Cancer Cell Proliferation (IC50) HCT-116
Method: as §3

MDM2 = experiment: Protein expression, Western blot in MCF-7 cells; settings: 1 μM, 6 h (FIG. 4A)
Method: as §1, §2

[1] = Homo sapiens, MCF7, Table 2, XTT, read-out: IC50 (μM) MCF-7
[2] = Table 2, XTT, read-out: IC50 (μM) MCF-7
[3] = average ± standard deviation of 2-4 independent assays
[4] = XTT, average ± standard deviation of 2-4 independent assays, read-out: Inhibition of Cancer Cell Proliferation (IC50) MCF-7

| Structure (SMILES) | expression of p21 (p21) | IC50 (MCF-7; [1]) | IC50 (MCF-7; [2]) | IC50 (MCF7 cells; MCF7, Table 5, MTT, 72 hr) | Growth inhibitory activity (IC50) in MCF7 cells (MCF7 cells; Table 5, MTT, 72 hr) | expression of p53 (p53) | further results |
| --- | --- | --- | --- | --- | --- | --- | --- |
| Cc1ccc(S(=O)(=O)n2cc3c4c2C(=O)C(NCc2ccc5c(c2)OCO5)=CC4=NCC3)cc1.O=C(O)C(F)(F)F [Compound 1] | increased the expression | < 1 µM | 0.78 µM | – | – | – | – |
| O=C(O)C(F)(F)F.O=C1C(NCc2ccc3c(c2)OCO3)=CC2=NCCc3c[nH]c1c32 [Compound 2] | decreased the expression | 5 to 15 µM | 5.22 µM | 809 nM | nM range | increased the expression | – |
| COC1=CC(CNC2=CC3=NCCc4cn(S(=O)(=O)c5ccc(C)cc5)c(c43)C2=O)=CC(OC)C1OC (centres unmarked) [Compound 3] | – | < 1 µM | 0.96 µM | – | – | – | – |
| COC1=CC(CNC2=CC3=NCCc4c[nH]c(c43)C2=O)=CC(OC)C1OC.O=C(O)C(F)(F)F (centres unmarked) [Compound 4] | – | 30.5 µM | – | 515 nM | – | increased the expression | – |
| Cc1ccc(S(=O)(=O)n2cc3c4c2C(=O)C(NCCc2ccc5c(c2)OCO5)=CC4=NCC3)cc1.O=C(O)C(F)(F)F [Compound 5] | increased the expression | – | – | 1620 nM | μM range | increased the expression | – |
| Cc1ccc(S(=O)(=O)n2cc3c4c2C(=O)C(NCCc2ccc([N+](=O)[O-])cc2)=CC4=NCC3)cc1 [Compound 7] | – | < 1 µM | > 1 µM | – | – | – | – |
| Cc1ccc(S(=O)(=O)n2cc3c4c2C(=O)C(NCCc2ccccc2)=CC4=NCC3)cc1 [Compound 7d] | – | – | – | – | – | – | IC50 (MDA-MB-468; [3]): 800 ± 100 nM; IC50 (HCT-116; [3]): 500 nM; IC50 (MCF-7; [4]): 1.5 ± 0.1 µM |
| Cc1ccc(S(=O)(=O)n2cc3c4c2C(=O)C(NCCc2cc(Br)c(O)c(Br)c2)=CC4=NCC3)cc1 [Compound 7f] | – | – | – | – | – | – | IC50 (MDA-MB-468; [3]): 1500 ± 900 nM; IC50 (HCT-116; [3]): 1000 ± 200 nM; IC50 (MCF-7; [4]): 2.3 ± 1.1 µM |
| Cc1ccc(S(=O)(=O)n2cc3c4c2C(=O)C(NCCc2c[nH]c5ccccc25)=CC4=NCC3)cc1 [Compound 7g] | – | – | – | – | – | – | IC50 (MDA-MB-468; [3]): 1400 ± 900 nM; IC50 (HCT-116; [3]): 800 ± 300 nM; IC50 (MCF-7; [4]): 1.2 ± 0.03 µM |
| O=C(O)C(F)(F)F.O=C1C(NCCc2ccc([N+](=O)[O-])cc2)=CC2=NCCc3c[nH]c1c32 [Compound 8] | decreased the expression | – | – | 427 nM | nM range | decreased the expression | expression of MDM2 (MDM2): inhibited the expression |
| Cc1ccc(CNC2=CC3=NCCc4cn(S(=O)(=O)c5ccc(C)cc5)c(c43)C2=O)cc1 [Compound 9] | – | 1 to 5 µM | 1.48 µM | – | – | – | – |
| Cc1ccc(CNC2=CC3=NCCc4c[nH]c(c43)C2=O)cc1 [Compound 10] | – | 1 to 5 µM | 1.69 µM | – | – | – | – |
| Cc1ccc(CCNC2=CC3=NCCc4cn(S(=O)(=O)c5ccc(C)cc5)c(c43)C2=O)cc1 [Compound 11] | – | 1 to 5 µM | 1.47 µM | – | – | – | – |
| Cc1ccc(CCNC2=CC3=NCCc4c[nH]c(c43)C2=O)cc1.O=C(O)C(F)(F)F [Compound 12] | decreased the expression | – | – | 833 nM | nM range | increased the expression | expression of MDM2 (MDM2): inhibited the expression |
| COc1ccc(CNC2=CC3=NCCc4cn(S(=O)(=O)c5ccc(C)cc5)c(c43)C2=O)cc1 [Compound 13] | – | 1 to 5 µM | 1.02 µM | – | – | – | – |
| COc1ccc(CCNC2=CC3=NCCc4cn(S(=O)(=O)c5ccc(C)cc5)c(c43)C2=O)cc1.O=C(O)C(F)(F)F [Compound 15] | decreased the expression | 1 to 5 µM | 1.33 µM | 1050 nM | μM range | decreased the expression | expression of MDM2 (MDM2): inhibited the expression |
| COc1ccc(CCNC2=CC3=NCCc4c[nH]c(c43)C2=O)cc1.O=C(O)C(F)(F)F [Compound 16] | decreased the expression | – | – | 200 nM | nM range | decreased the expression | expression of MDM2 (MDM2): inhibited the expression |
| COc1ccc(CNC2=CC3=NCCc4cn(S(=O)(=O)c5ccc(C)cc5)c(c43)C2=O)cc1OC.O=C(O)C(F)(F)F [Compound 17] | increased the expression | < 1 µM | 0.65 µM | 1010 nM | μM range | increased the expression | – |
| COc1ccc(CNC2=CC3=NCCc4c[nH]c(c43)C2=O)cc1OC [Compound 18] | – | 5 to 15 µM | 5.98 µM | – | – | – | – |
| COc1ccc(CCNC2=CC3=NCCc4cn(S(=O)(=O)c5ccc(C)cc5)c(c43)C2=O)cc1OC [Compound 19] | – | < 1 µM | > 1 µM | – | – | – | – |
| Cc1ccc(S(=O)(=O)n2cc3c4c2C(=O)C(NCc2ccc(Cl)cc2)=CC4=NCC3)cc1.O=C(O)C(F)(F)F [Compound 21] | decreased the expression | < 1 µM | 0.83 µM | 774 nM | nM range | decreased the expression | expression of MDM2 (MDM2): inhibited the expression |
| O=C1C(NCc2ccc(Cl)cc2)=CC2=NCCc3c[nH]c1c32 [Compound 22] | – | 1 to 5 µM | 1.33 µM | – | – | – | – |
| Cc1ccc(S(=O)(=O)n2cc3c4c2C(=O)C(NCCc2ccc(Cl)cc2)=CC4=NCC3)cc1 [Compound 23] | – | 1 to 5 µM | 1.55 µM | – | – | – | – |
| O=C(O)C(F)(F)F.O=C1C(NCCc2ccc(Cl)cc2)=CC2=NCCc3c[nH]c1c32 [Compound 24] | decreased the expression | – | – | 584 nM | nM range | increased the expression | expression of MDM2 (MDM2): inhibited the expression |
| O=C(O)C(F)(F)F.O=C1C(NCCc2ccc(Cl)c(Cl)c2)=CC2=NCCc3c[nH]c1c32 [Compound 26] | increased the expression | – | – | – | nM range | increased the expression | IC50 (MCF7 cells; MCF7, 72 h): 495 nM |
| Cc1ccc(S(=O)(=O)n2cc3c4c2C(=O)C(NCCc2ccc(F)cc2)=CC4=NCC3)cc1.O=C(O)C(F)(F)F [Compound 29] | increased the expression | – | – | 1920 nM | μM range | increased the expression | – |
| O=C(O)C(F)(F)F.O=C1C(NCCc2ccc(F)cc2)=CC2=NCCc3c[nH]c1c32 [Compound 30] | increased the expression | – | – | 787 nM | nM range | increased the expression | – |
| COc1cc([C@@H]2c3cc4c(cc3[C@@H](O[C@@H]3O[C@@H]5CO[C@@H](C)O[C@H]5[C@H](O)[C@H]3O)[C@H]3COC(=O)[C@H]23)OCO4)cc(OC)c1O [Etoposide, reference compound] | – | 30.5 µM | – | – | – | – | IC50 (MDA-MB-468; Homo sapiens, MDA-MB-468, average ± standard deviation of 2-4 independent assays): 13600 nM; IC50 (HCT-116; Homo sapiens, HCT-116, average ± standard deviation of 2-4 independent assays): 1700 nM; IC50 (MCF-7; Homo sapiens, MCF7, XTT, average ± standard deviation of 2-4 independent assays, read-out: Inhibition of Cancer Cell Proliferation (IC50) MCF-7): 35.6 µM |
